From patent publication US9783552B2, “Soluble guanylate cyclase activators” (MERCK SHARP & DOHME CORP., priority 2013, dated 2017)

Molecular target: T1, sGC α1/β1 heterodimer (Homo sapiens, UniProt Q02108+Q02153)
T1 construct: expressed in transfected cells
T1 sequence (Q02108 1-690): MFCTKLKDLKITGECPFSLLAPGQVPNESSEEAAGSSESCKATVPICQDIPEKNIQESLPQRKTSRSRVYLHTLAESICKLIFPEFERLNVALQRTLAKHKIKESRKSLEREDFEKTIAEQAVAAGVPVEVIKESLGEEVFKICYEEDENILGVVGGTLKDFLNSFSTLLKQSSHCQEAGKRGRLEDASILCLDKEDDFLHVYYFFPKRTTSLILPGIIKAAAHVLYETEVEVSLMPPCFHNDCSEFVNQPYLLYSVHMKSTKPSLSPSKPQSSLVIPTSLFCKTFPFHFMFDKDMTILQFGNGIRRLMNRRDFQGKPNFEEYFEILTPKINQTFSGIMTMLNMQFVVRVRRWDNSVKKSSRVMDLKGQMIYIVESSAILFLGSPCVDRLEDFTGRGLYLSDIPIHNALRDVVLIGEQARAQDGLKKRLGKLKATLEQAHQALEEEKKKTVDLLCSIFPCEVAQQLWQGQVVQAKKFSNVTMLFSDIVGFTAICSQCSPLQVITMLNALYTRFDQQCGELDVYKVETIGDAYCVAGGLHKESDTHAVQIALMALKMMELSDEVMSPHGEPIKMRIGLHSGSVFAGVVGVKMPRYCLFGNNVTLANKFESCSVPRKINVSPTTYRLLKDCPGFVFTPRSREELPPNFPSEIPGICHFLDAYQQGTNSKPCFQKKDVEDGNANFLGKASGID
T1 sequence (Q02153 1-619): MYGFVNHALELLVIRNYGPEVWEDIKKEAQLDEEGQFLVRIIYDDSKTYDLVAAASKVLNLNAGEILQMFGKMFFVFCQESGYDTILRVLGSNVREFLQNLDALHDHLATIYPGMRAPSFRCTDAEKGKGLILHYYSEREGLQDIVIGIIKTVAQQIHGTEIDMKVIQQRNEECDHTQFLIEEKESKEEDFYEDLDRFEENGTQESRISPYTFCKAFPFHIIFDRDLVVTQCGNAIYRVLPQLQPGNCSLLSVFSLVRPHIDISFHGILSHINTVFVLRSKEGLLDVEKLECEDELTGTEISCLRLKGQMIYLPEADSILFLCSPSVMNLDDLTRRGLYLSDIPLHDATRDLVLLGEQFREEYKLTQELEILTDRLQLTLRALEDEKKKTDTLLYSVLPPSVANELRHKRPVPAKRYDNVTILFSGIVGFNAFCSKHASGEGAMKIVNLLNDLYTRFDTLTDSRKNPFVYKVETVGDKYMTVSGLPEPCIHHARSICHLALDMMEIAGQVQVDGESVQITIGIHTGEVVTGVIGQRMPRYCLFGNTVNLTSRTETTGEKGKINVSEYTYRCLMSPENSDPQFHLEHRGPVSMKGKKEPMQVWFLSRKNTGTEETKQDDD
Assay: Cell-Based sGC Functional Assay (CASA Assay)
Settings: CHO-K1/sGC cells; for EC50: intracellular cGMP by HTRF, 1 hr at 37° C., IP from 4P fit, presence or absence of 1 μM DETA-NO not given; for Emax: cGMP as percentage of maximum cGMP production of Compound A (=100% activation), read-out: % ACT (percent activation)
Description: Biological Assays: Cell-Based sGC Functional Assay (CASA Assay)
sGC is a heme-containing enzyme that converts GTP to secondary messenger cGMP. Increases in cGMP levels affect several physiological processes including vasorelaxation through multiple downstream pathways. […] Heme-dependent activators (HDAs) preferentially activate sGC containing a ferrous heme group. To determine the effect of sGC activators on enzyme activity, the CASA assay was developed to monitor the generation of cGMP in a cell line that stably expresses the heterodimeric sGC protein.
A CHO-K1 cell line stably expressing the sGC α1/β1 heterodimer was generated using a standard transfection protocol. CHO-K1 cells were transfected with plasmids pIREShyghsGCα1 and pIRESneo-hsGCβ1 simultaneously using FUGENE reagent. Clones that stably express both subunits were selected with hygromycin and neomycin for ˜2 weeks. Clone #7 was chosen for the assay and was designated CHO-K1/sGC. CHO-K1/sGC cells were maintained in F-K12 medium containing 10% heat-inactivated Fetal Bovine Serum (FBS), 100 μg/mL penicillin/streptomycin, 0.5 mg/mL hygromycin and 0.25 mg/mL G418. The cells were then cryopreserved in LN2. On the day of the assay, cells were thawed and resuspended in EBSS Assay Buffer (EAB, Sigma, E3024) supplemented with 5 mM MgCl2, 10 mM HEPES (4-(2-hydroxyethyl)piperazine-1-ethanesulfonic acid) and 0.05% BSA (bovine serum albumin) and cell density was then adjusted to 4×10^5/mL with EAB. IBMX (3-isobutyl-1-methylxanthin, 0.5 mM) was added to inhibit degradation of cGMP. Compounds were diluted from DMSO stock solutions and added to the assay at a final DMSO concentration of 2.5%. Cells were incubated with compounds in the presence and absence of 1 μM of Diethylenetriamine/nitric oxide adduct (DETA-NO; Sigma, 17018) for 1 hr at 37° C. At the end of the incubation period, the reaction was terminated and the cells were lysed with the detection reagents from Cisbio Kits. The level of intracellular cGMP was determined using an HTRF-based assay kit (CisBio, 62GM2PEC), which detects the displacement of a fluorescence labeled cGMP from its specific antibody. The cGMP produced by test compounds was directly compared to the maximum cGMP production (this value was set to equal 100% activation) of the published sGC-HDA Compound A:
[drawing 123] (Example 1 in WO 2010/065275, published Jun. 10, 2010). The test compounds' activity was then expressed as a percentage of Compound A, the standard in every experiment. This percent activation was calculated either in the presence or absence of DETA-NO which was then plotted. IP and maximum fold induction was derived using ADA analysis software for 4P fit.

| EC50 [µM] | Emax [%] | SMILES |
| --- | --- | --- |
| 0.245 | 84 | Cn1ncc2c(-c3nc(N)c4c(n3)NC(=O)C4(C)C(N)=O)nc(CCC(F)(F)C(F)(F)F)nc21 (single isomer, unassigned) [Example 30, 4-Amino-5-methyl-2-(1-methyl-6-(3,3,4,4,4-pentafluorobutyl)-1H-pyrazolo[3,4-d]pyrimidin-4-yl)-6-oxo-6,7-dihydro-5H-pyrrolo[2,3-d]pyrimidine-5-carboxamide] |
| 0.54 | 93 | [2H]C([2H])([2H])n1ncc2c(-c3nc(N)c4c(n3)NC(=O)C4(C(N)=O)C(C)C)nc(CCC(F)(F)C(F)(F)F)nc21 (single isomer, unassigned) [Example 37, 4-Amino-5-isopropyl-2-(6-(3,3,4,4,4-pentafluorobutyl)-1-trideuteriomethyl-1H-pyrazolo[3,4-d]pyrimidin-4-yl)-6-oxo-6,7-dihydro-5H-pyrrolo[2,3-d]pyrimidine-5-carboxamide] |
| 0.648 | 112 | CCn1ncc2c(-c3nc(N)c4c(n3)NC(=O)C4(C(=O)NC3CC3)C3CC3)nc(CCC(F)(F)C(F)(F)F)nc21 (single isomer, unassigned) [Example 38, 4-Amino-N,5-dicyclopropyl-2-(1-ethyl-6-(3,3,4,4,4-pentafluorobutyl)-1H-pyrazolo[3,4-d]pyrimidin-4-yl)-6-oxo-6,7-dihydro-5H-pyrrolo[2,3-d]pyrimidine-5-carboxamide] |
| 0.209 | 110 | [2H]C([2H])([2H])n1ncc2c(-c3nc(N)c4c(n3)NC(=O)C4(C)c3ccc(O)cc3)nc(CCC(F)(F)C(F)(F)F)nc21 (single isomer, unassigned) [Example 43, 4-Amino-5-(4-hydroxyphenyl)-5-methyl-2-(6-(3,3,4,4,4-pentafluorobutyl)-1-trideuteriomethyl-1H-pyrazolo[3,4-d]pyrimidin-4-yl)-5H-pyrrolo[2,3-d]pyrimidin-6(7H)-one] |
| 0.135 | 131 | [2H]C([2H])([2H])n1ncc2c(-c3nc(N)c4c(n3)NC(=O)C4(C(=O)NCC)C3CC3)nc(CCC(F)(F)C(F)(F)F)nc21 (single isomer, unassigned) [Example 29, 4-Amino-5-cyclopropyl-N-ethyl-2-(6-(3,3,4,4,4-pentafluorobutyl)-1-trideuteriomethyl-1H-pyrazolo[3,4-d]pyrimidin-4-yl)-6-oxo-6,7-dihydro-5H-pyrrolo[2,3-d]pyrimidine-5-carboxamide] |
| 0.248 | 105 | Cn1ncc2c(-c3nc(N)c4c(n3)NC(=O)C4(C)C#N)nc(CCC(F)(F)C(F)(F)F)nc21 (single isomer, unassigned) [Example 49, 4-Amino-5-methyl-2-(1-methyl-6-(3,3,4,4,4-pentafluorobutyl)-1H-pyrazolo[3,4-d]pyrimidin-4-yl)-6-oxo-6,7-dihydro-5H-pyrrolo[2,3-d]pyrimidine-5-carbonitrile] |
| 0.403 | 107 | [2H]C([2H])([2H])n1nnc2c(-c3nc(N)c4c(n3)NC(=O)C4(C)c3ccccc3)nc(CCC(F)(F)C(F)(F)F)nc21 (single isomer, unassigned) [Example 68, 4-Amino-5-methyl-2-(5-(3,3,4,4,4-pentafluorobutyl-3-trideuteriomethyl)-3H-[1,2,3]triazolo[4,5-d]pyrimidin-7-yl)-5-phenyl-5H-pyrrolo[2,3-d]pyrimidin-6(7H)-one] |
| 0.053 | 122 | Cn1ncc2c(-c3nc(N)c4c(n3)NC(=O)C4(C)c3ccc(F)cc3)nc(CC3CC(F)(F)C3)nc21 (single isomer, unassigned) [Example 5, 4-Amino-2-(6-((3,3-difluorocyclobutyl)methyl)-1-methyl-1H-pyrazolo[3,4-d]pyrimidin-4-yl)-5-(4-fluorophenyl)-5-methyl-5H-pyrrolo[2,3-d]pyrimidin-6(7H)-one] |
| 0.015 | 112 | COc1ccc(C2(C)C(=O)Nc3nc(-c4nc(CCC(F)(F)C(F)(F)F)nc5c4cnn5C)nc(N)c32)cc1F (single isomer, unassigned) [Example 16, 4-Amino-5-(3-fluoro-4-methoxyphenyl)-5-methyl-2-(1-methyl-6-(3,3,4,4,4-pentafluorobutyl)-1H-pyrazolo[3,4-d]pyrimidin-4-yl)-5H-pyrrolo[2,3-d]pyrimidin-6(7H)-one] |
| 0.146 | 121 | Cn1ncc2c(-c3nc(N)c4c(n3)NC(=O)C4(C)c3ccc(F)cc3)nc(CCC(F)(F)F)nc21 (single isomer, unassigned) [Example 11, 4-Amino-5-(4-fluorophenyl)-5-methyl-2-(1-methyl-6-(3,3,3-trifluoropropyl)-1H-pyrazolo[3,4-d]pyrimidin-4-yl)-5H-pyrrolo[2,3-d]pyrimidin-6(7H)-one] |
| 0.09 | 91 | [2H]C([2H])([2H])n1ncc2c(-c3nc(N)c4c(n3)NC(=O)C4(C)c3ccc(-c4cnn(C)c4)cc3)nc(CCC(F)(F)C(F)(F)F)nc21 (single isomer, unassigned) [Example 46, 4-Amino-5-methyl-5-(4-(1-methyl-1H-pyrazol-4-yl)phenyl)-2-(6-(3,3,4,4,4-pentafluorobutyl)-1-trideuteriomethyl-1H-pyrazolo[3,4-d]pyrimidin-4-yl)-5H-pyrrolo[2,3-d]pyrimidin-6(7H)-one] |
| 0.055 | 121 | Cn1ncc2c(-c3nc(N)c4c(n3)NC(=O)C4(C)C(=O)NC3CC3)nc(Cc3cccc(F)c3F)nc21 (single isomer, unassigned) [Example 40, 4-Amino-N-cyclopropyl-2-(6-(2,3-difluorobenzyl)-1-methyl-1H-pyrazolo[3,4-d]pyrimidin-4-yl)-5-methyl-6-oxo-6,7-dihydro-5H-pyrrolo[2,3-d]pyrimidine-5-carboxamide] |
| 0.092 | 106 | C#CC1(C)C(=O)Nc2nc(-c3nc(CCC(F)(F)C(F)(F)F)nc4c3cnn4C)nc(N)c21 (single isomer, unassigned) [Example 21, 4-Amino-5-ethynyl-5-methyl-2-(1-methyl-6-(3,3,4,4,4-pentafluorobutyl)-1H-pyrazolo[3,4-d]pyrimidin-4-yl)-5H-pyrrolo[2,3-d]pyrimidin-6(7H)-one] |
